Laboratory results as given in US20240409556A1, “BENZOPIPERAZINE AND RELATED ANALOGS FOR INHIBITING YAP/TAZ-TEAD” (Springworks Therapeutics, Inc., priority 2023, published 2024).

Key:
Format in all cases: cell-based
[1] = test system: NCI-H2052 mesothelioma cell line; assay: Mesothelioma cell line proliferation assay, NCI-H2052 (ATPlite); conditions: Homo sapiens, 144 h; NCI-H2052 cells, 6 days with compound, cell viability by ATPlite
Protocol: (§1) Example 57: Activity of Compounds of the Disclosure in Mesothelioma Cell Line Proliferation Assays
(§2) Mesothelioma cell lines, NCI-H226 and NCI-H2052 (both sourced from the ATCC cell culture collection) were plated in 96-well plates (Corning® 96 Well White Polystyrene Microplate clear flat bottom, white polystyrene (TC-Treated)), at 1500 cells/well in full medium (RPMI 1640 ATCC modification with L-glutamine, HEPES, Phenol Red, Sodium Pyruvate, High glucose, Low sodium bicarbonate and 10% fetal bovine serum). Cells were incubated overnight at 37° C. in an incubator with 5% CO2. Then compounds, dissolved in DMSO, were added in dose-response. Cells were incubated with compound dilutions for another 6 days at 37° C. in an incubator with 5% CO2. Cell viability was quantitated using the ATPlite kit (Perkin-Elmer) and the luminescence was read-out using an Envision instrument (Perkin-Elmer). The amount of relative light units produced using the ATPlite kit was used to calculate percent of inhibition.
(§3) The activities of some example compounds are depicted in Table 4. The activity ranges A, B and C refer to EC50 values in the mesothelioma cell line proliferation assay as described as follows: “A”: EC50<1 μM; “B”: 1 μM≤EC50≤10 μM and “C”: EC50>10 μM; NT: not tested.

[2] = test system: YAP/TAZ-TEAD transcription; assay: Reporter gene assay for measuring the inhibition of YAP/TAZ-TEAD transcription (TEAD-responsive element luciferase reporter in Hek293T cells); conditions: 24 hours incubation
In short: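 HEK293T cells transiently transfected with a TEAD-responsive luciferase reporter were exposed to compounds for 24 h at 37° C/5% CO2, then luminescence was read. Percent inhibition normalised to vehicle (0%) and positive-control inhibitor (100%); IC50 derived.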

[3] = test system: NCI-H226 mesothelioma cell line; assay: Mesothelioma cell line proliferation assay, NCI-H226 (ATPlite); conditions: Homo sapiens, 144 h; NCI-H226 cells, 6 days with compound, cell viability by ATPlite
Protocol: as §1, §2, §3

| SMILES | EC50 [1] | IC50 ([2]; Homo sapiens, HEK-293T, 24 h) | EC50 [3] | IC50 [2] |
| --- | --- | --- | --- | --- |
| C=CC(=O)NCC1CN(c2ccc(C(F)(F)F)cc2)c2ccccc2N1CCC(N)=O (stereo not drawn) [compound 13, N-((1-(3-amino-3-oxopropyl)-4-(4-(trifluoromethyl)phenyl)-1,2,3,4-tetrahydroquinoxalin-2-yl)methyl)acrylamide] | < 1000 nM | < 1000 nM | < 1000 nM | – |
| CC(=O)N1CCN2c3ccccc3N(c3ccc(C(F)(F)F)cc3)CC2C1 (stereo not drawn) [compound 15, 1-(6-(4-(trifluoromethyl)phenyl)-1,2,4,4a,5,6-hexahydro-3H-pyrazino[1,2-a]quinoxalin-3-yl)ethan-1-one] | < 1000 nM | < 1000 nM | < 1000 nM | – |
| C=CC(=O)NCC1CN(c2ccc(C(F)(F)F)cc2)c2ccccc2N1C (stereo not drawn) [compound 17, N-((1-methyl-4-(4-(trifluoromethyl)phenyl)-1,2,3,4-tetrahydroquinoxalin-2-yl)methyl)acrylamide] | < 1000 nM | < 1000 nM | < 1000 nM | – |
| C=CC(=O)NCC1CN(c2ccc(C(F)(F)F)cc2)c2ccccc2N1 (stereo not drawn) [compound 22, N-((4-(4-(trifluoromethyl)phenyl)-1,2,3,4-tetrahydroquinoxalin-2-yl)methyl)acrylamide] | < 1000 nM | < 1000 nM | < 1000 nM | – |
| CNS(=O)(=O)N1CCN2c3ccccc3N(c3ccc(C(F)(F)F)cc3)CC2C1 (stereo not drawn) [compound 32, N-methyl-6-(4-(trifluoromethyl)phenyl)-1,2,4,4a,5,6-hexahydro-3H-pyrazino[1,2-a]quinoxaline-3-sulfonamide] | < 1000 nM | < 1000 nM | < 1000 nM | – |
| CC(=O)NCC1CN(c2ccc(C(F)(F)F)cc2)c2ccccc2N1 (stereo not drawn) [compound 34, N-((4-(4-(trifluoromethyl)phenyl)-1,2,3,4-tetrahydroquinoxalin-2-yl)methyl)acetamide] | < 1000 nM | – | < 1000 nM | < 1000 nM |
| C=CC(=O)NCC1CN(c2ccc(C(F)(F)F)cc2)c2ccccc2O1 (stereo not drawn) [compound 35, N-((4-(4-(trifluoromethyl)phenyl)-3,4-dihydro-2H-benzo[b][1,4]oxazin-2-yl)methyl)acrylamide] | < 1000 nM | < 1000 nM | < 1000 nM | – |
| CC(=O)NCC1CN(c2ccc(C(F)(F)F)cc2)c2ccccc2O1 (stereo not drawn) [compound 36, N-((4-(4-(trifluoromethyl)phenyl)-3,4-dihydro-2H-benzo[b][1,4]oxazin-2-yl)methyl)acetamide] | < 1000 nM | < 1000 nM | < 1000 nM | – |
| C=CC(=O)N1CCN2C(=O)CN(c3ccc(C(F)(F)F)cc3)CC2C1 (stereo not drawn) [compound 37, 8-acryloyl-2-(4-(trifluoromethyl)phenyl)octahydro-4H-pyrazino[1,2-a]pyrazin-4-one] | < 1000 nM | < 1000 nM | < 1000 nM | – |
| FC(F)(F)c1ccc(N2CCN(Cc3cnc[nH]3)c3ccccc32)cc1 [compound 51, 1-((1H-imidazol-5-yl)methyl)-4-(4-(trifluoromethyl)phenyl)-1,2,3,4-tetrahydroquinoxaline] | < 1000 nM | < 1000 nM | < 1000 nM | – |
| FC(F)(F)c1ccc(N2CCN(Cc3cn[nH]c3)c3ccccc32)cc1 [compound 63, 1-((1H-pyrazol-4-yl)methyl)-4-(4-(trifluoromethyl)phenyl)-1,2,3,4-tetrahydroquinoxaline] | < 1000 nM | < 1000 nM | < 1000 nM | – |
| CS(=O)(=O)N[C@@H]1C[C@@H]2CN(c3ccc(C(F)(F)F)cc3)c3cccnc3N2C1 [compound 85, N-((6aR,8R)-5-(4-(trifluoromethyl)phenyl)-5,6,6a,7,8,9-hexahydropyrido[3,2-e]pyrrolo[1,2-a]pyrazin-8-yl)methanesulfonamide] | > 10000 nM | < 1000 nM | 1000 to 10000 nM | – |
| CNS(=O)(=O)N[C@@H]1C[C@@H]2CN(c3ccc(C(F)(F)F)cc3)c3cccnc3N2C1 [compound 86, N-((6aR,8R)-5-(4-(trifluoromethyl)phenyl)-5,6,6a,7,8,9-hexahydropyrido[3,2-e]pyrrolo[1,2-a]pyrazin-8-yl), N′-methylsulfuric diamide] | > 10000 nM | < 1000 nM | 1000 to 10000 nM | – |
| O=C(O)[C@@H]1C[C@@H]2CN(c3ccc(C(F)(F)F)cc3)c3cccnc3N2C1 [compound 102, (6aR,8R)-5-(4-(trifluoromethyl)phenyl)-5,6,6a,7,8,9-hexahydropyrido[3,2-e]pyrrolo[1,2-a]pyrazine-8-carboxylic acid] | < 1000 nM | < 1000 nM | < 1000 nM | – |
| CC(=O)N[C@@H]1C[C@@H]2CN(c3ccc(C(F)(F)F)cc3)c3ccc(C)nc3N2C1 [compound 107, N-((6aR,8R)-2-methyl-5-(4-(trifluoromethyl)phenyl)-5,6,6a,7,8,9-hexahydropyrido[3,2-e]pyrrolo[1,2-a]pyrazin-8-yl) acetamide] | < 1000 nM | < 1000 nM | < 1000 nM | – |
